The source of these data is article PMC10285291, “The impact of CYP2C19 genotype on phenoconversion by concomitant medication” (Frontiers in Pharmacology, 2023).

Data set [1] concerns the target T1, CYP2C19 (Homo sapiens, UniProt P33261). Nature of the data set: S-mephenytoin […]'-hydroxylation inhibition in individual human liver microsomes at […] fluvoxamine, LC-MS/MS. It is filed as cell-based. Further details: human liver microsomes. On the technique in general: Microsomes from liver hold many membrane-bound enzymes, among them those of drug oxidation.
Data set [2] deals with T1, CYP2C19. The data set is described as follows: in vitro. The following applies: microsomes.

T1 sequence (P33261 whole entry): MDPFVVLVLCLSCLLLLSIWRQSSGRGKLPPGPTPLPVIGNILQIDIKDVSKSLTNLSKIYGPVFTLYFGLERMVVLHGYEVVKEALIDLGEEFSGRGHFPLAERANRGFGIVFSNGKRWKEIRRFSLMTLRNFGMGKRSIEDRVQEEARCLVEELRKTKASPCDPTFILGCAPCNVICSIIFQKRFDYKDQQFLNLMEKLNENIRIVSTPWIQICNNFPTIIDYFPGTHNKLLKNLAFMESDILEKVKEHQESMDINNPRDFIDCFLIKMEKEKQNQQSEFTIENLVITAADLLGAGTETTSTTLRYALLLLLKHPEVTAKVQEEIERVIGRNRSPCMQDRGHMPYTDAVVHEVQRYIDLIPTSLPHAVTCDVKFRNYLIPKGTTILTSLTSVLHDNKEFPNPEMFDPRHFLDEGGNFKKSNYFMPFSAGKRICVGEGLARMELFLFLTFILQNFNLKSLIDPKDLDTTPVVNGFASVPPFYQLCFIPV

What is called inhibition is the change of the read-out against control, counted positive when it falls. At CYP2C19 [1], `COCCCC/C(=N\OCCN)c1ccc(C(F)(F)F)cc1` [fluvoxamine] gave an inhibition at 1 µM of 85%.

With `COc1ccc2[nH]c([S+]([O-])Cc3ncc(C)c(OC)c3C)nc2c1` (centres unmarked) [omeprazole], on CYP2C19 [2], the KI (inactivation) stood at 4.47 ± 1.8 µM.
